Test results reported in patent publication US20090148342A1, “Hypochlorite Technology” (priority 2007, published 2009).

Columns and labels:
Dust mite allergen = details: ELISA test after treatment for 1 hour; low concentration; cited from earlier work
Escherica coli = assay: Ceramic tile disinfection with powdered hypochlorite; details: tile treated with 2% NaOCl (positive control)
Staphococcus species = assay: as above; details: tile treated with 2% NaOCl (positive control)
contaminated slides = assay: Continuous disinfection of contaminated slides by vapor emitter; assay type: cell-based; details: 6000 ppm sodium hypochlorite at pH 9; contaminated slides exposed and evaluated every couple of days
Source text: Another approach is increasing the pH of the bleach solution to reduce chlorine. See in the Examples Section below. An isobaric line for constant hypochlorous acid vapor pressure can be calculated from literature values of various equilibrium constants for various concentrations of sodium hypochlorite and pH. Thus, one can maintain the performance of a desired concentration of hypochlorous acid but eliminate chlorine by increasing pH and hypochlorite concentration according to the isobaric line. […] The higher bleach concentrations also allow for smaller volumes of solution since the volume of solution required to provide a certain number of moles of hypochlorous acid decreases as the concentration increases. […] This allows much longer product lifetimes for an emitter. […] In one embodiment, the sodium hypochlorite at about pH 9 is gelled using clay.

Klebsiella species = assay: Ceramic tile disinfection with powdered hypochlorite; details: tile sprayed with 2% solution; contact time four minutes (positive control)
[1] = Stability of thickened dilute hypochlorite at 120° F.; details: compared with thickeners of Table XXIV

For `OCl` [hypochlorite ions], the “reduction of dust mite allergen binding” value (Dust mite allergen) is listed as “up to 82%”.

In the case of `[Na+].[O-]Cl` [NaOCl, sodium hypochlorite], the “bacterial growth on agar plate” value (Escherica coli) was “no growth”, the “bacterial growth on agar plate” value (Staphococcus species) was “no growth” and the “duration of continuous disinfection” value (contaminated slides) was “continuous disinfection for more than a month”. For the same compound, the “bacterial growth on agar plate” value (Klebsiella species) was “no bacterial growth”.

With `CCCCCCCCCCCCOS(=O)(=O)[O-].[Na+]` [sodium lauryl sulfate] the “stability of dilute hypochlorite with surfactant, by comparison” value [1] was “less stable than Vangel ES®”.
